The values below come from patent publication US20240409519A1, “HYDROGENATED QUINOXALINES” (OTSUKA PHARMACEUTICAL CO., LTD., priority 2021, published 2024).

Type in all cases: in vitro ADME
One data set has as its target T1, CYP3A4 (Homo sapiens, UniProt P08684).
T1 construct: a human liver microsome solution containing three CYP-specific substrates; from tissue; host or cells: human liver microsomes
As to the kind of experiment: CYP inhibition test (2): 50% inhibitory concentration from 3 concentrations, CYP3A4. Particulars: human liver microsome, midazolam substrate, 0.01, 0.03 and 0.1 mmol/L; read-out: 50% inhibitory concentration, 3A4. Here is the method: (§1) A metabolic reaction was initiated by adding and mixing a test compound solution (final concentration 0.01, 0.03 and 0.1 mmol/L) and a NADH/NADPH solution (final concentration 1 mmol/L) to a human liver microsome solution containing three CYP-specific substrates (final concentration 100 mmol/L potassium phosphate buffer solution (pH 7.4), 5 mmol/L magnesium chloride, 0.1 mg/mL human liver microsome, 0.005 mmol/L diclofenac (for CYP2C9), 0.01 mmol/L bufuralol (for CYP2D6), 0.005 mmol/L midazolam (for CYP3A4)). As an internal standard solution, a solution of each of stable isotopes of the metabolites (50 ng/mL [13C6] hydroxy diclofenac, 5 ng/mL [2H9] hydroxy bufuralol, and 5 ng/mL [13C6] hydroxy midazolam (all stable isotopes)) in methanol was prepared and used as a quenching solution. Specifically, a metabolic reaction was initiated by adding and mixing 2 μL of a solution of a test compound in acetonitrile (or acetonitrile as a control) to 178 μL of a human liver microsome solution in ice water, followed by preincubation at 37° C. for 1 minute, and then adding 20 μL of a NADH/NADPH solution thereto. After incubation at 37° C. for 10 minutes, 50 μL of the reaction mixture was taken, and then it was added and mixed to 500 μL of a quenching solution to quech the reaction. The mixture was centrifuged (6130 g, 4° C., 10 minutes) and the supernatant was used as a sample for LC-MS/MS. Peak area ratio ([peak area of metabolite]/[peak area of corresponding stable isotope]) was calculated for a metabolite and a stable isotope of the metabolite as measurement object. By comparing the peak area ratio of each test compound solution with that of the control, the inhibition rate (%) of each CYP species for each test compound was calculated from (1−[peak area ratio of each test compound solution]/[peak area ratio of control])×100.
On the technique in general: Liver microsomes are vesicles of endoplasmic reticulum, rich in cytochrome P450 enzymes.

For another data set, the target named is T2, CYP2D6 (Homo sapiens, UniProt P10635).
T2 construct: a human liver microsome solution containing three CYP-specific substrates; from tissue; host or cells: human liver microsomes
As to the kind of experiment: CYP inhibition test (2): 50% inhibitory concentration from 3 concentrations, CYP2D6. The note with it: human liver microsome, bufuralol substrate, 0.01, 0.03 and 0.1 mmol/L; read-out: 50% inhibitory concentration, 2D6. Here is the method: as §1

The target of another data set is T3, CYP2C9 (Homo sapiens, UniProt P11712).
T3 construct: a human liver microsome solution containing three CYP-specific substrates; from tissue; host or cells: human liver microsomes
Put plainly: CYP inhibition test (2): 50% inhibitory concentration from 3 concentrations, CYP2C9. Particulars: human liver microsome, diclofenac substrate, 0.01, 0.03 and 0.1 mmol/L, read-out: 50% inhibitory concentration, 2C9. Here is the method:
as §1

The structures appear in SMILES notation.

T2 sequence (P10635 whole entry): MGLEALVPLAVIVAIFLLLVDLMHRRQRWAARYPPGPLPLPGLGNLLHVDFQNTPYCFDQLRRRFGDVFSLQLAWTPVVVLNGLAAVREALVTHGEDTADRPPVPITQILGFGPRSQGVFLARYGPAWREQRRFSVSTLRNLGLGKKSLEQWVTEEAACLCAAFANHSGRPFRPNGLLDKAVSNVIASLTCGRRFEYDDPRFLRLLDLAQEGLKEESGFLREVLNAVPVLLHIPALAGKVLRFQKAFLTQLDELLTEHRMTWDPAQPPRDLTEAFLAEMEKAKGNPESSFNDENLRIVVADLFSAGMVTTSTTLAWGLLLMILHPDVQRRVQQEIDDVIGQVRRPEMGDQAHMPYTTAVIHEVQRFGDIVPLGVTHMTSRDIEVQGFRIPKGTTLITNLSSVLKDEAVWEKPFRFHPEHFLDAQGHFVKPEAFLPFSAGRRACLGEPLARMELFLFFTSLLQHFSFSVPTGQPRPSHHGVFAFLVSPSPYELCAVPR
T1 sequence (P08684 whole entry): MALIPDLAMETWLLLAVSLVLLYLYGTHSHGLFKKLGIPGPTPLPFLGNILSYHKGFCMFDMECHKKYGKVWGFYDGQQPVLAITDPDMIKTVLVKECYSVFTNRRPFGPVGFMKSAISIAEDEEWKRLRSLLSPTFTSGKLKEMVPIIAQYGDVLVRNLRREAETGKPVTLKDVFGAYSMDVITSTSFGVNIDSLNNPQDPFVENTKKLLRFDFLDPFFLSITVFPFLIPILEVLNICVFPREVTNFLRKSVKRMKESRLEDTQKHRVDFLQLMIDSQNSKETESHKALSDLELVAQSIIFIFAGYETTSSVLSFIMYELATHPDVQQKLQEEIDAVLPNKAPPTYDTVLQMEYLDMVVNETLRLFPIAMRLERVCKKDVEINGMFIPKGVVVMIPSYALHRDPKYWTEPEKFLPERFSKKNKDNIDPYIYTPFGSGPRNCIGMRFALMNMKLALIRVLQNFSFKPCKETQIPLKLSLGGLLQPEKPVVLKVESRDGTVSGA
T3 sequence (P11712 whole entry): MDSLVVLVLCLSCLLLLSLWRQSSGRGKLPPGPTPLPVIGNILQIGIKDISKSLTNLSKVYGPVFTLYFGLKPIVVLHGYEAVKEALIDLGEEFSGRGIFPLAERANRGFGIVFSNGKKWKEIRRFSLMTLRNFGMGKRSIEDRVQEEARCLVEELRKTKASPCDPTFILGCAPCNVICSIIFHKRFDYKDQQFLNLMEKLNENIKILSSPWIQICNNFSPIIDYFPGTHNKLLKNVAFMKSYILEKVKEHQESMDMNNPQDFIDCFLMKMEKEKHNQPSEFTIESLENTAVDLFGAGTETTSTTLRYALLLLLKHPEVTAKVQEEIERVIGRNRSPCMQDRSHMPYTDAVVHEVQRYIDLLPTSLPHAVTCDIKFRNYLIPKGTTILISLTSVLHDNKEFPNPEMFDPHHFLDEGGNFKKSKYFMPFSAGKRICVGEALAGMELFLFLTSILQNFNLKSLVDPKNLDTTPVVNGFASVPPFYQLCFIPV

On to `C[C@@H]1CN(c2cc(F)c(OCCO)c(Cl)c2)[C@H]2CCCC[C@@H]2N1` [Example 17, 2-(2-chloro-6-fluoro-4-((3R,4aS,8aS)-3-methyloctahydroquinoxalin-1(2H)-yl)phenoxy)ethan-1-ol 1/2fumarate], for which the IC50 at CYP3A4, at CYP2D6 and on CYP2C9 was above 100 µM in each case.

`C[C@H]1CN(c2cc(F)c(OCCO)c(Cl)c2)[C@H]2CCCC[C@H]2N1` [Example 18]: the IC50 at CYP3A4 was above 100 µM; on CYP2D6, 59.1 µM; on CYP2C9, above 100 µM.

`CC1(C)CN(c2ccc(OC(F)(F)CO)cc2)[C@H]2CCCC[C@@H]2N1` [Example 20, 2-(4-((4aS,8aS)-3,3-dimethyloctahydroquinoxalin-1(2H)-yl)phenoxy)-2,2-difluoroethan-1-ol]: the IC50 at CYP3A4 is 94.9 µM; on CYP2D6 it was above 100 µM; on CYP2C9 it was above 100 µM.

Turning to `CC1(C)CN(c2ccc(OC(F)(F)CO)cc2)[C@@H]2CCCC[C@H]2N1` [Example 21], the IC50 on CYP3A4, on CYP2D6 and at CYP2C9 was above 100 µM throughout.

For `COc1cc(N2CC(C)(C)N[C@H]3CCCC[C@@H]32)ccc1OC(F)(F)CO` [Example 26], the IC50 on CYP3A4, on CYP2D6 and on CYP2C9 was above 100 µM throughout.

Regarding `CC1(C)CN(c2ccc(OCCO)c(Cl)c2)[C@H]2CCCC[C@@H]2N1` [Example 27, 2-(2-chloro-4-((4aS,8aS)-3,3-dimethyloctahydroquinoxalin-1(2H)-yl)phenoxy)ethan-1-ol], the IC50 on CYP3A4, on CYP2D6 and at CYP2C9 was above 100 µM in each case.

As to `CC1(C)CN(c2ccc(OCCO)c(Cl)c2)[C@@H]2CCCC[C@H]2N1` [Example 28], the IC50 on CYP3A4, on CYP2D6 and at CYP2C9 was above 100 µM each time.

`Cc1cc(N2CC(C)(C)N[C@H]3CCCC[C@@H]32)ccc1OC(F)(F)CO` [Example 31]: the results for the IC50 at CYP3A4, on CYP2D6 and on CYP2C9 were 62.5 µM, above 100 µM and above 100 µM, respectively.

As for `Cc1cc(N2CC(C)(C)N[C@@H]3CCCC[C@H]32)ccc1OC(F)(F)CO` [Example 32], the figures for the IC50 on CYP3A4, on CYP2D6 and at CYP2C9 were 62.8 µM, above 100 µM and above 100 µM, respectively.

Regarding `CC1(C)CN(c2cc(F)c(OCCO)c(F)c2)[C@H]2CCCC[C@@H]2N1` [Example 34, 2-(4-((4aS,8aS)-3,3-dimethyloctahydroquinoxalin-1(2H)-yl)-2,6-difluorophenoxy)ethan-1-ol], the IC50 at CYP3A4, on CYP2D6 and on CYP2C9 was above 100 µM each time.

With `CC1(C)CN(c2cc(F)c(OCCO)c(F)c2)[C@@H]2CCCC[C@H]2N1` [Example 35], the IC50 on CYP3A4 is above 100 µM; on CYP2D6 it was 55.5 µM; on CYP2C9, above 100 µM.

Turning to `CC1(C)CN(c2cc(F)c(OCCO)c(F)c2)[C@H]2CCCC[C@H]2N1` [Example 36], the IC50 was above 100 µM on CYP3A4 and 87.6 µM on CYP2D6. Besides, the IC50 at 10 min on CYP2C9 (human liver microsomes, pH 7.4, probe diclofenac (0.005 mmol/L)) came out at 100 µM.

With `CN1[C@H]2CCCC[C@@H]2N(c2ccc(OC(F)(F)CO)cc2)CC1(C)C` [Example 37, 2,2-difluoro-2-(4-((4aS,8aS)-3,3,4-trimethyloctahydroquinoxalin-1(2H)-yl)phenoxy)ethan-1-ol], the IC50 on CYP3A4 was 86.7 µM; at CYP2D6, above 100 µM; on CYP2C9 it was above 100 µM.
